Where “and” joins values, the source holds several entries; their conditions need not be identical. Equal entries are not always repeated.
Experiment: Phase 1 single-ascending dose (Part 1): safety and tolerability in healthy adults
Assay type: in vivo, human
Protocol: This ongoing trial is a Phase 1 randomized, double-blind, placebo-controlled study in male and female healthy adult volunteers aged 18-55 years. All volunteers provided written, informed consent.
All volunteers were followed up for 4 weeks and safety and tolerability were continuously assessed throughout the study. All adverse events (AEs) were recorded from the time of consent to the completion visit and were graded using the DAIDS toxicity grading scale. Volunteers also underwent physical examinations, electrocardiograms, vital sign checks and clinical laboratory parameters (chemistry, haematology, urinalysis).

SMILES: CCCCOc1nc(N)c2[nH]cc(Cc3ccc(CN4CCCC4)cc3)c2n1 [Compound 4]
- subjects with at least one SAE (single dose 1.25 mg fasted): 0 n (%)
- subjects with at least one fatal AE (single dose 1.25 mg fasted): 0 n (%)
- subjects with at least one grade 1 AE (single dose 1.25 mg fasted): 7 (87.5%) n (%)
- subjects with at least one grade 2 AE (single dose 1.25 mg fasted): 1 (12.5%) n (%)
- subjects with at least one grade 3 or 4 AE (single dose 1.25 mg fasted): 0 n (%)
- subjects with fever and flu-like symptoms (flu-like AEs and lymphopenia) (single dose 1.25 mg fasted): 3 and 3/8
- treatment-related AE: Any AE (single dose 1.25 mg fasted): 6 (75.0%) n (%)
- treatment-related AE: Chills (single dose 1.25 mg fasted): 0 n (%)
- treatment-related AE: Dizziness (single dose 1.25 mg fasted): 0 n (%)
- treatment-related AE: General disorders and administration site conditions (single dose 1.25 mg fasted): 3 (37.5%) n (%)
- treatment-related AE: Headache (single dose 1.25 mg fasted): 4 (50.0%) n (%)
- treatment-related AE: Hypertension (single dose 1.25 mg fasted): 0 n (%)
- treatment-related AE: Myalgia (single dose 1.25 mg fasted): 3 (37.5%) n (%)
- treatment-related AE: Nervous system disorders (single dose 1.25 mg fasted): 4 (50.0%) n (%)
- treatment-related AE: Oropharyngeal pain (single dose 1.25 mg fasted): 2 (25.0%) n (%)
- treatment-related AE: Pyrexia (single dose 1.25 mg fasted): 3 (37.5%) n (%)
- treatment-related AE: Respiratory, thoracic and mediastinal disorders (single dose 1.25 mg fasted): 2 (25.0%) n (%)
- treatment-related AE: Vascular disorder (single dose 1.25 mg fasted): 0 n (%)
- vital signs: Respiratory rate (brpm) Grade 1 (single dose 1.25 mg fasted): 7 (87.5%) n (%)
- vital signs: Respiratory rate (brpm) Grade 2 (single dose 1.25 mg fasted): 0 n (%)
- vital signs: SaO2 (%) 90% to <95% (single dose 1.25 mg fasted): 3 (37.5%) n (%)
- vital signs: SaO2 (%) 95% to <98% (single dose 1.25 mg fasted): 3 (37.5%) n (%)
- vital signs: Standing DBP (mmHg) Grade 1 (single dose 1.25 mg fasted): 1 (12.5%) n (%)
- vital signs: Standing DBP (mmHg) Grade 2 (single dose 1.25 mg fasted): 2 (25.0%) n (%)
- vital signs: Standing DBP (mmHg) Grade 3 (single dose 1.25 mg fasted): 0 n (%)
- vital signs: Standing DBP (mmHg) Low (single dose 1.25 mg fasted): 0 n (%)
- vital signs: Standing SBP (mmHg) Grade 1 (single dose 1.25 mg fasted): 1 (12.5%) n (%)
- vital signs: Standing SBP (mmHg) Low (single dose 1.25 mg fasted): 1 (12.5%) n (%)
- vital signs: Standing pulse (bpm) High (single dose 1.25 mg fasted): 1 (12.5%) n (%)
- vital signs: Standing pulse (bpm) Low (single dose 1.25 mg fasted): 0 n (%)
- vital signs: Supine DBP (mmHg) Grade 1 (single dose 1.25 mg fasted): 1 (12.5%) n (%)
- vital signs: Supine DBP (mmHg) Low (single dose 1.25 mg fasted): 0 n (%)
- vital signs: Supine SBP (mmHg) Grade 1 (single dose 1.25 mg fasted): 1 (12.5%) n (%)
- vital signs: Supine SBP (mmHg) Grade 2 (single dose 1.25 mg fasted): 0 n (%)
- vital signs: Supine SBP (mmHg) Low (single dose 1.25 mg fasted): 1 (12.5%) n (%)
- vital signs: Supine pulse (bpm) Low (single dose 1.25 mg fasted): 0 n (%)
- ↑ AST Grade 3 (laboratory abnormality) (single dose 1.25 mg fasted): 0 n (%)
- ↑ Amylase Grade 2 (laboratory abnormality) (single dose 1.25 mg fasted): 0 n (%)
- ↑ Cholesterol Grade 2 (laboratory abnormality) (single dose 1.25 mg fasted): 1 (17) n (%)
- ↑ Creatine kinase Grade 2 (laboratory abnormality) (single dose 1.25 mg fasted): 0 n (%)
- ↑ Creatine kinase Grade 4 (laboratory abnormality) (single dose 1.25 mg fasted): 0 n (%)
- ↑ Glucose Grade 2 (laboratory abnormality) (single dose 1.25 mg fasted): 1 (13) n (%)
- ↑ LDL cholesterol Grade 2 (laboratory abnormality) (single dose 1.25 mg fasted): 0 n (%)
- ↑ LDL cholesterol Grade 3 (laboratory abnormality) (single dose 1.25 mg fasted): 1 (13) n (%)
- ↑ Lipase Grade 2 (laboratory abnormality) (single dose 1.25 mg fasted): 0 n (%)
- ↑ Pancreatic amylase Grade 2 (laboratory abnormality) (single dose 1.25 mg fasted): 0 n (%)
- ↑ Potassium Grade 2 (laboratory abnormality) (single dose 1.25 mg fasted): 0 n (%)
- ↑ Sodium Grade 2 (laboratory abnormality) (single dose 1.25 mg fasted): 1 (13) n (%)
- ↑ Triglycerides Grade 2 (laboratory abnormality) (single dose 1.25 mg fasted): 4 (50) n (%)
- ↑ Triglycerides Grade 3 (laboratory abnormality) (single dose 1.25 mg fasted): 0 n (%)
- ↓ Bicarbonate Grade 2 (laboratory abnormality) (single dose 1.25 mg fasted): 0 n (%)
- ↓ Lymphocytes Grade 2 (laboratory abnormality) (single dose 1.25 mg fasted): 1 (13) n (%)
- ↓ Lymphocytes Grade 4 (laboratory abnormality) (single dose 1.25 mg fasted): 0 n (%)
- ↓ Neutrophils Grade 2 (laboratory abnormality) (single dose 1.25 mg fasted): 0 n (%)
- ↓ Phosphate Grade 2 (laboratory abnormality) (single dose 1.25 mg fasted): 0 n (%)
- Any AE (treatment-emergent) (single dose 1.25 mg fed): 6 (86) n (%)
- Back pain Grade 1 (treatment-emergent AE) (single dose 1.25 mg fed): 0 n (%)
- Chills Grade 1 (treatment-emergent AE) (single dose 1.25 mg fed): 0 n (%)
- Contact dermatitis Grade 1 (treatment-emergent AE) (single dose 1.25 mg fed): 0 n (%)
- Dizziness Grade 1 (treatment-emergent AE) (single dose 1.25 mg fed): 0 n (%)
- ECG actual value: Heart rate (bpm) Low (single dose 1.25 mg fed): 0 n (%)
- ECG actual value: QRS (ms) High (single dose 1.25 mg fed): 0 n (%)
- ECG actual value: QTcB (ms) ]450; 480] (single dose 1.25 mg fed): 0 n (%)
- ECG actual value: QTcF (ms) ]450; 480] (single dose 1.25 mg fed): 0 n (%)
- ECG change from reference: QTcB (ms) [30; 60] (single dose 1.25 mg fed): 2 (28.6%) n (%)
- ECG change from reference: QTcF (ms) [30; 60] (single dose 1.25 mg fed): 1 (14.3%) n (%)
- Headache Grade 1 (treatment-emergent AE) (single dose 1.25 mg fed): 1 (14) n (%)
- Headache Grade 2 (treatment-emergent AE) (single dose 1.25 mg fed): 0 n (%)
- Hypertension Grade 1 (treatment-emergent AE) (single dose 1.25 mg fed): 0 n (%)
- Hypertension Grade 2 (treatment-emergent AE) (single dose 1.25 mg fed): 0 n (%)
- Myalgia Grade 1 (treatment-emergent AE) (single dose 1.25 mg fed): 0 n (%)
- Oropharyngeal pain Grade 1 (treatment-emergent AE) (single dose 1.25 mg fed): 2 (29) n (%)
- Pyrexia Grade 1 (treatment-emergent AE) (single dose 1.25 mg fed): 0 n (%)
- Pyrexia Grade 2 (treatment-emergent AE) (single dose 1.25 mg fed): 0 n (%)
- URTI Grade 1 (treatment-emergent AE) (single dose 1.25 mg fed): 1 (14) n (%)
- lab toxicity: Amylase (U/L), upwards, Grade 1 (single dose 1.25 mg fed): 1 (14.3%) n (%)
- lab toxicity: Amylase (U/L), upwards, Grade 2 (single dose 1.25 mg fed): 0 n (%)
- lab toxicity: Cholesterol (mmol/L), upwards, Grade 1 (single dose 1.25 mg fed): 0 n (%)
- lab toxicity: Cholesterol (mmol/L), upwards, Grade 2 (single dose 1.25 mg fed): 0 n (%)
- lab toxicity: Creatine kinase (U/L), upwards, Grade 1 (single dose 1.25 mg fed): 0 n (%)
- lab toxicity: Creatine kinase (U/L), upwards, Grade 2 (single dose 1.25 mg fed): 0 n (%)
- lab toxicity: Creatine kinase (U/L), upwards, Grade 4 (single dose 1.25 mg fed): 0 n (%)
- lab toxicity: Glucose (mmol/L), upwards, Grade 1 (single dose 1.25 mg fed): 2 (28.6%) n (%)
- lab toxicity: Glucose (mmol/L), upwards, Grade 2 (single dose 1.25 mg fed): 0 n (%)
- lab toxicity: LDL cholesterol (mmol/L, calculated), upwards, Grade 1 (single dose 1.25 mg fed): 1 (14.3%) n (%)
- lab toxicity: LDL cholesterol (mmol/L, calculated), upwards, Grade 2 (single dose 1.25 mg fed): 0 n (%)
- lab toxicity: LDL cholesterol (mmol/L, calculated), upwards, Grade 3 (single dose 1.25 mg fed): 0 n (%)
- lab toxicity: Lymphocytes (giga/L), downwards, Grade 2 (single dose 1.25 mg fed): 0 n (%)
- lab toxicity: Lymphocytes (giga/L), downwards, Grade 4 (single dose 1.25 mg fed): 0 n (%)
- lab toxicity: Neutrophils, segmented (giga/L), downwards, Grade 1 (single dose 1.25 mg fed): 0 n (%)
- lab toxicity: Neutrophils, segmented (giga/L), downwards, Grade 2 (single dose 1.25 mg fed): 0 n (%)
- lab toxicity: Platelets (giga/L), downwards, Grade 1 (single dose 1.25 mg fed): 0 n (%)
- lab toxicity: Sodium (mmol/L), upwards, Grade 1 (single dose 1.25 mg fed): 3 (42.9%) n (%)
- lab toxicity: Sodium (mmol/L), upwards, Grade 2 (single dose 1.25 mg fed): 0 n (%)
- lab toxicity: Triglycerides (mmol/L), upwards, Grade 1 (single dose 1.25 mg fed): 3 (42.9%) n (%)
- lab toxicity: Triglycerides (mmol/L), upwards, Grade 2 (single dose 1.25 mg fed): 1 (14.3%) n (%)
- lab toxicity: Triglycerides (mmol/L), upwards, Grade 3 (single dose 1.25 mg fed): 0 n (%)
- lab toxicity: Urate (μmol/L), upwards, Grade 1 (single dose 1.25 mg fed): 0 n (%)
- subjects with at least one AE (single dose 1.25 mg fed): 6 (85.7%) n (%)
- subjects with at least one AE for which any study drug or study was permanently stopped (single dose 1.25 mg fed): 0 n (%)
- subjects with at least one AE for which any study drug or study was temporarily stopped (single dose 1.25 mg fed): 0 n (%)
- subjects with at least one AE possibly related to any study drug (single dose 1.25 mg fed): 1 (14.3%) n (%)
- subjects with at least one AE possibly, probably or very likely related to any study drug (single dose 1.25 mg fed): 1 (14.3%) n (%)
- subjects with at least one AE probably related to any study drug (single dose 1.25 mg fed): 0 n (%)
- subjects with at least one AE very likely related to any study drug (single dose 1.25 mg fed): 0 n (%)
- subjects with at least one SAE (single dose 1.25 mg fed): 0 n (%)
- subjects with at least one fatal AE (single dose 1.25 mg fed): 0 n (%)
- subjects with at least one grade 1 AE (single dose 1.25 mg fed): 6 (85.7%) n (%)
- subjects with at least one grade 2 AE (single dose 1.25 mg fed): 0 n (%)
- subjects with at least one grade 3 or 4 AE (single dose 1.25 mg fed): 0 n (%)
- treatment-related AE: Any AE (single dose 1.25 mg fed): 1 (14.3%) n (%)
- treatment-related AE: Chills (single dose 1.25 mg fed): 0 n (%)
- treatment-related AE: Dizziness (single dose 1.25 mg fed): 0 n (%)
- treatment-related AE: General disorders and administration site conditions (single dose 1.25 mg fed): 0 n (%)
- treatment-related AE: Headache (single dose 1.25 mg fed): 0 n (%)
- treatment-related AE: Hypertension (single dose 1.25 mg fed): 0 n (%)
- treatment-related AE: Myalgia (single dose 1.25 mg fed): 0 n (%)
- treatment-related AE: Nervous system disorders (single dose 1.25 mg fed): 0 n (%)
- treatment-related AE: Oropharyngeal pain (single dose 1.25 mg fed): 1 (14.3%) n (%)
- treatment-related AE: Pyrexia (single dose 1.25 mg fed): 0 n (%)
- treatment-related AE: Respiratory, thoracic and mediastinal disorders (single dose 1.25 mg fed): 1 (14.3%) n (%)
- treatment-related AE: Vascular disorder (single dose 1.25 mg fed): 0 n (%)
- vital signs: Respiratory rate (brpm) Grade 1 (single dose 1.25 mg fed): 3 (42.9%) n (%)
- vital signs: Respiratory rate (brpm) Grade 2 (single dose 1.25 mg fed): 0 n (%)
- vital signs: SaO2 (%) 90% to <95% (single dose 1.25 mg fed): 1 (14.3%) n (%)
- vital signs: SaO2 (%) 95% to <98% (single dose 1.25 mg fed): 3 (42.9%) n (%)
- vital signs: Standing DBP (mmHg) Grade 1 (single dose 1.25 mg fed): 1 (14.3%) n (%)
- vital signs: Standing DBP (mmHg) Grade 2 (single dose 1.25 mg fed): 2 (28.6%) n (%)
- vital signs: Standing DBP (mmHg) Grade 3 (single dose 1.25 mg fed): 1 (14.3%) n (%)
- vital signs: Standing DBP (mmHg) Low (single dose 1.25 mg fed): 0 n (%)
- vital signs: Standing SBP (mmHg) Grade 1 (single dose 1.25 mg fed): 3 (42.9%) n (%)
- vital signs: Standing SBP (mmHg) Low (single dose 1.25 mg fed): 0 n (%)
- vital signs: Standing pulse (bpm) High (single dose 1.25 mg fed): 1 (14.3%) n (%)
- vital signs: Standing pulse (bpm) Low (single dose 1.25 mg fed): 0 n (%)
- vital signs: Supine DBP (mmHg) Grade 1 (single dose 1.25 mg fed): 1 (14.3%) n (%)
- vital signs: Supine DBP (mmHg) Low (single dose 1.25 mg fed): 0 n (%)

Reference: patent US12263172B2, “Toll-like receptor agonists for use in the treatment of hepatitis b” (priority 2019, dated 2025)
